What was measured:
[1] = tested on: ALK tyrosine kinase receptor (Homo sapiens), Q9UM73 [L1196M]; details: Compound concentration 1000.0 nM
[2] = target: Serine/threonine-protein kinase B-raf (Homo sapiens) (UniProt P15056); details: Compound concentration 1000.0 nM
[3] = tested on: Serine/threonine-protein kinase B-raf (Homo sapiens), P15056 [V600E]; details: Compound concentration 1000.0 nM
[4] = target: Dual specificity protein kinase CLK1 (Homo sapiens) (UniProt P49759); details: Compound concentration 1000.0 nM
[5] = target: Fibroblast growth factor receptor 4 (Homo sapiens) (UniProt P22455); details: Compound concentration 1000.0 nM
[6] = target: Receptor-type tyrosine-protein kinase FLT3 (Homo sapiens) (UniProt P36888); details: Compound concentration 1000.0 nM
[7] = tested on: Receptor-type tyrosine-protein kinase FLT3 (Homo sapiens), P36888 [D835Y]; details: Compound concentration 1000.0 nM
[8] = target: Serine/threonine-protein kinase MARK2 (Homo sapiens) (UniProt Q7KZI7); details: Compound concentration 1000.0 nM
[9] = target: Dual specificity mitogen-activated protein kinase kinase 1 (Homo sapiens) (UniProt Q02750); details: Compound concentration 1000.0 nM
[10] = target: Myosin-IIIa (Homo sapiens) (UniProt Q8NEV4); details: Compound concentration 1000.0 nM
[11] = target: T1, Serine/threonine-protein kinase Nek9 (Homo sapiens) (UniProt Q8TD19); details: Compound concentration 1000.0 nM
T1 sequence (whole entry): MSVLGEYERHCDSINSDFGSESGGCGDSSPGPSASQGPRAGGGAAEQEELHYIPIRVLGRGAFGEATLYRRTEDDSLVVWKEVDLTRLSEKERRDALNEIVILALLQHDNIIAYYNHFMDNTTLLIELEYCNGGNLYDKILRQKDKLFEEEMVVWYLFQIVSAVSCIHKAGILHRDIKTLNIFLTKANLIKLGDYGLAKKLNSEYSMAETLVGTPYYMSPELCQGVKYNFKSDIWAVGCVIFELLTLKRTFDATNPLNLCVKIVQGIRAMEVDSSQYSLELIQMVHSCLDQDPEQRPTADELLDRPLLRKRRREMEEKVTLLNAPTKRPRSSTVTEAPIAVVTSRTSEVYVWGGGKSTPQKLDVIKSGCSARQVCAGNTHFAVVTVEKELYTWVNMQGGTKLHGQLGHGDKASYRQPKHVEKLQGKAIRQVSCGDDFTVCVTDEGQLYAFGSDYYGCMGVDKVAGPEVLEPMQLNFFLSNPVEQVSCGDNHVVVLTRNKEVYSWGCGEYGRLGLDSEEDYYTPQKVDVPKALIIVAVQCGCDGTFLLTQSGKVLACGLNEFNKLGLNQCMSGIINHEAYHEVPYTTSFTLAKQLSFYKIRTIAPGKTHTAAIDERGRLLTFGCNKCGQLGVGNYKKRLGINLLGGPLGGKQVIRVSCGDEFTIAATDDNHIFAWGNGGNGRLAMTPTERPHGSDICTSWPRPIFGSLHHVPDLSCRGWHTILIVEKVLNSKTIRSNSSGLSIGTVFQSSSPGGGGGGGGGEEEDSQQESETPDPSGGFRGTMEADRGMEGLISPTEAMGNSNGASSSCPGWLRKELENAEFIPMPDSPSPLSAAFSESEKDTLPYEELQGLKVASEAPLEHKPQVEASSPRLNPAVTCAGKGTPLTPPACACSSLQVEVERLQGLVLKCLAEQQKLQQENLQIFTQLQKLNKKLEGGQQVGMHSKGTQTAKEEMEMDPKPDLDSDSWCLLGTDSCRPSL

[12] = tested on: Phosphatidylinositol 4,5-bisphosphate 3-kinase catalytic subunit alpha isoform (Homo sapiens), P42336 [I800L]; details: Compound concentration 1000.0 nM
[13] = target: Serine/threonine-protein kinase pim-1 (Homo sapiens) (UniProt P11309); details: Compound concentration 1000.0 nM
[14] = target: Transient receptor potential cation channel subfamily M member 6 (Homo sapiens) (UniProt Q9BX84); details: Compound concentration 1000.0 nM
[15] = target: Vascular endothelial growth factor receptor 2 (Homo sapiens) (UniProt P35968); details: Compound concentration 1000.0 nM
[16] = target: D(3) dopamine receptor (Homo sapiens) (UniProt P35462); details: Compound concentration 10.0 uM
[17] = target: D(4) dopamine receptor (Homo sapiens) (UniProt P21917); details: Compound concentration 10.0 uM
[18] = target: Beta-1 adrenergic receptor (Homo sapiens) (UniProt P08588); details: Compound concentration 10.0 uM
[19] = target: Muscarinic acetylcholine receptor M3 (Homo sapiens) (UniProt P20309); details: Compound concentration 10.0 uM

Chain of D(3) dopamine receptor (Homo sapiens) (P35462 whole entry): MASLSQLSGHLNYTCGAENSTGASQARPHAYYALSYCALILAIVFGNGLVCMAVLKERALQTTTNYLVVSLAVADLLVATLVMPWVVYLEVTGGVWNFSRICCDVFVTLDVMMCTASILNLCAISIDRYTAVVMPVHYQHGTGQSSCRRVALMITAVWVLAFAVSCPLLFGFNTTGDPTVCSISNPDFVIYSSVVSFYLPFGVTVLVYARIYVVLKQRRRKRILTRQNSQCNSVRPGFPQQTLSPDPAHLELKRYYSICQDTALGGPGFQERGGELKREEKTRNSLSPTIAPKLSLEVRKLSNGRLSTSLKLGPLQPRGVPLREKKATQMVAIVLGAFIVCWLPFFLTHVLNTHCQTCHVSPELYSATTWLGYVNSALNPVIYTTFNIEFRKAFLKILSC
Chain of Fibroblast growth factor receptor 4 (Homo sapiens) (P22455 22-802 limits assumed): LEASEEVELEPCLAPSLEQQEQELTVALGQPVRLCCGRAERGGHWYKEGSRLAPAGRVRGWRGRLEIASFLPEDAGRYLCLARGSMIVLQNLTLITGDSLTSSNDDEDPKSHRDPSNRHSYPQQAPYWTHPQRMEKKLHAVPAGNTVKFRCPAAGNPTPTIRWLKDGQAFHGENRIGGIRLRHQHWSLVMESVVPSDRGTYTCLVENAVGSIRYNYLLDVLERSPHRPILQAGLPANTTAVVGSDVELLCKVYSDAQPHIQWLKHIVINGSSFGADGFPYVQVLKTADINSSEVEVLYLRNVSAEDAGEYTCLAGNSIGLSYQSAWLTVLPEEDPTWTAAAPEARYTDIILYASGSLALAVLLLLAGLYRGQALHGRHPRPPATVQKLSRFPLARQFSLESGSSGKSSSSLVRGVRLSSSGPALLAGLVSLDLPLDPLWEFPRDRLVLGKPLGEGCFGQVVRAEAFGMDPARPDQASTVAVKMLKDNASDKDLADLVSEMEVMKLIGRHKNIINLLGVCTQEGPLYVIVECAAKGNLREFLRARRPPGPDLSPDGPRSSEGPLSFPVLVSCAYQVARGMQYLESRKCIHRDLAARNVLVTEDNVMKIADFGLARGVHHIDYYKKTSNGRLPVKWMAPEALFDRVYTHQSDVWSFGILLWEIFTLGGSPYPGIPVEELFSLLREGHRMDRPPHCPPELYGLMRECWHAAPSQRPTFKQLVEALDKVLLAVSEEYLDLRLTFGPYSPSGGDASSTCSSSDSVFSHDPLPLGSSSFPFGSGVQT
Chain of Vascular endothelial growth factor receptor 2 (Homo sapiens) (P35968 whole entry): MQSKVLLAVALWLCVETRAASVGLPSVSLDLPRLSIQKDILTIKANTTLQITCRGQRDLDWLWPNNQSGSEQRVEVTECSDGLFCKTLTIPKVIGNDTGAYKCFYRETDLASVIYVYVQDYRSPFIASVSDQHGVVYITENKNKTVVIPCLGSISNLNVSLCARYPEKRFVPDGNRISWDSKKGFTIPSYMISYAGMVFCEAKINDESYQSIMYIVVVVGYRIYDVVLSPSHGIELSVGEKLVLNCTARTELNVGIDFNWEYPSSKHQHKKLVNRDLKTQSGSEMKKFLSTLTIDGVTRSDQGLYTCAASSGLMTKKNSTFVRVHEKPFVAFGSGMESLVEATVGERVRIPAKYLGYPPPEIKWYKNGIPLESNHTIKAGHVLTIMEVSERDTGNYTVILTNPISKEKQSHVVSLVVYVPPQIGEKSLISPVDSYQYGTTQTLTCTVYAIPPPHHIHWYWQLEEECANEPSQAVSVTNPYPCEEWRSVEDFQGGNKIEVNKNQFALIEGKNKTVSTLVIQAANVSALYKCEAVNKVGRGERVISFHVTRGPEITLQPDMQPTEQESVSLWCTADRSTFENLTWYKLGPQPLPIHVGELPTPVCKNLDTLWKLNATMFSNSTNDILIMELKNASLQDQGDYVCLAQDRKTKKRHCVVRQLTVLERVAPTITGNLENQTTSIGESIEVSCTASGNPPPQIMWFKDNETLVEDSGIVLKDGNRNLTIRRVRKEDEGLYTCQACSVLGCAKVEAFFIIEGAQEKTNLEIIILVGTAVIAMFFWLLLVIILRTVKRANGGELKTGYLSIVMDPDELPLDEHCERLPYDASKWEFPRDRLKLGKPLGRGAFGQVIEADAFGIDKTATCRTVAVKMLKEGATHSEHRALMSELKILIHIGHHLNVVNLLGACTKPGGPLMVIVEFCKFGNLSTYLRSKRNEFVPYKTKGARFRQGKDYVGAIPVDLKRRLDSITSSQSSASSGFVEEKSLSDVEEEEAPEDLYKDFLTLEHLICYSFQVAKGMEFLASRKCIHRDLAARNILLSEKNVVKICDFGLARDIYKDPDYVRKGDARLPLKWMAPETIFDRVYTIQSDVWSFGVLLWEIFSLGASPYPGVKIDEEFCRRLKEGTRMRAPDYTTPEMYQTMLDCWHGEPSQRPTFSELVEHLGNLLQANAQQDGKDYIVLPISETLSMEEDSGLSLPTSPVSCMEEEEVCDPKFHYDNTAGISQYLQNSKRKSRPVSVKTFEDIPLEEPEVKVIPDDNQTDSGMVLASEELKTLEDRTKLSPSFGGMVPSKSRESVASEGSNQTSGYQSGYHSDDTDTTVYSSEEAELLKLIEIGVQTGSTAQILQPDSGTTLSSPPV
Chain of Dual specificity protein kinase CLK1 (Homo sapiens) (P49759 whole entry, looked up): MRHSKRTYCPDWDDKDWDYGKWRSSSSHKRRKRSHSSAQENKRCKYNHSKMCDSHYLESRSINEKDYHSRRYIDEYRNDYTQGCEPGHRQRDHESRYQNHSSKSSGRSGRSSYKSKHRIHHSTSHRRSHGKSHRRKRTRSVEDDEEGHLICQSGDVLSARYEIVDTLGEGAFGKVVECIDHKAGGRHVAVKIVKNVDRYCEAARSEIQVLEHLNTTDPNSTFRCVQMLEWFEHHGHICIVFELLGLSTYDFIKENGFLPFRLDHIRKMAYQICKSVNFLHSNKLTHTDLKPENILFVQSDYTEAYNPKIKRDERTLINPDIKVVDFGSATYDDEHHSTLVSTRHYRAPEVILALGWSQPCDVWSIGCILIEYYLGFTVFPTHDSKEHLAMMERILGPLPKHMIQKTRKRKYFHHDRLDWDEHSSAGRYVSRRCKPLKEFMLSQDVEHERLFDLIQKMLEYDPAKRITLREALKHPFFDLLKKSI
Chain of Phosphatidylinositol 4,5-bisphosphate 3-kinase catalytic subunit alpha isoform (Homo sapiens), P42336 [I800L] (P42336 whole entry I800L, canonical isoform): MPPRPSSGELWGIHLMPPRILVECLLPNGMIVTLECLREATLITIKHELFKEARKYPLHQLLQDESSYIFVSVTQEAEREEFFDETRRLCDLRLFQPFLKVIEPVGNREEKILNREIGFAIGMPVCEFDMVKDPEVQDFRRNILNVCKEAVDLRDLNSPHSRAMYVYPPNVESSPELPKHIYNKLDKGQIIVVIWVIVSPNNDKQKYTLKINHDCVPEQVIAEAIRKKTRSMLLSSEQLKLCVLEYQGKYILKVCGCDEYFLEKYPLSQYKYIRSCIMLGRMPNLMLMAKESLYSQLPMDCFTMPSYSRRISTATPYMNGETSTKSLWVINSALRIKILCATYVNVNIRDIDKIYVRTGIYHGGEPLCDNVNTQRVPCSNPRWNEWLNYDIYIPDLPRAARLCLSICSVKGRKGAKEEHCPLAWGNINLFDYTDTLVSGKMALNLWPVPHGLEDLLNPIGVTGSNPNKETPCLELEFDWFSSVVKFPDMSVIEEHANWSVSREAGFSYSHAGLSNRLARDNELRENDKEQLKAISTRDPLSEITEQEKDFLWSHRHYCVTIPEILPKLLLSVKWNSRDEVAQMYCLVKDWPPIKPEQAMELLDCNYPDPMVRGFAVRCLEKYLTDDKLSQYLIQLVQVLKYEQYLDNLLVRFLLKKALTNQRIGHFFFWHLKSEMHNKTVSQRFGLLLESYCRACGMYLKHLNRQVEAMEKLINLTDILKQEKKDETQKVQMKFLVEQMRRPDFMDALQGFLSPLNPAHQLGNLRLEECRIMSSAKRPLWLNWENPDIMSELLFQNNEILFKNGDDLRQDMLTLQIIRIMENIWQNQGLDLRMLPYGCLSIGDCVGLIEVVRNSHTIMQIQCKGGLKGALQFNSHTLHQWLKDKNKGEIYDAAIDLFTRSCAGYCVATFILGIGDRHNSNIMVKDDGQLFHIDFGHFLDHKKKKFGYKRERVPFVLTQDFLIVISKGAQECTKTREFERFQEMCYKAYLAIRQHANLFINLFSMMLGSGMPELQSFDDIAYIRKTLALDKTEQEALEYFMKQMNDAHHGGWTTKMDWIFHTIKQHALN
Chain of D(4) dopamine receptor (Homo sapiens) (P21917 whole entry): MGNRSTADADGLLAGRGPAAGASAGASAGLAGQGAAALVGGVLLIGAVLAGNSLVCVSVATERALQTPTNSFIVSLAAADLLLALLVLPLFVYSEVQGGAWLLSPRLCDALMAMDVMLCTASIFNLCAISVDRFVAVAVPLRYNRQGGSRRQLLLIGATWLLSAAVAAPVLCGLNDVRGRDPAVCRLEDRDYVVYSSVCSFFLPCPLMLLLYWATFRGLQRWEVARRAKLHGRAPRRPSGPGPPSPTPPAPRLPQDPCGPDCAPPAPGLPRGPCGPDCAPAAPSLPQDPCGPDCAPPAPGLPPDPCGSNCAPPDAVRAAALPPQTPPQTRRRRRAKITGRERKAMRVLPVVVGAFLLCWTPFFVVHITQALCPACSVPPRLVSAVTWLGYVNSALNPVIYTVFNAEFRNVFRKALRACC
Chain of Beta-1 adrenergic receptor (Homo sapiens) (P08588 whole entry, looked up): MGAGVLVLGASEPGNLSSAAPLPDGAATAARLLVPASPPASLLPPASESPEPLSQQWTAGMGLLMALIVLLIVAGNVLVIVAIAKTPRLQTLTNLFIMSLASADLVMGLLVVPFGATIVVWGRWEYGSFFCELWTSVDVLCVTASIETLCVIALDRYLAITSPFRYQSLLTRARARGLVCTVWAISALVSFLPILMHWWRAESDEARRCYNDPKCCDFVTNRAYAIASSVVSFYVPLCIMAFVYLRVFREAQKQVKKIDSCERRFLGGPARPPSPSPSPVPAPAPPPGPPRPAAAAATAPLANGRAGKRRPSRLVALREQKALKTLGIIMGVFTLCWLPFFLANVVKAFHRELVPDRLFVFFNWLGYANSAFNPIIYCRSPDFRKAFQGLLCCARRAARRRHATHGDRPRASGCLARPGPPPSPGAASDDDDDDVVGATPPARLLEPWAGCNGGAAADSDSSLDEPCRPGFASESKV

Cc1nc(C2CCN(C(=O)c3ccc(OC(F)(F)F)cc3N)CC2)c2ncc(N3CCN(C)CC3)cc2n1 [BAY-693]
inactive: residual activity [1] 98% | residual activity [2] 100% | residual activity [3] 100% | residual activity [4] 100% | residual activity [5] 100% | residual activity [6] 100% | residual activity [7] 97% | residual activity [8] 100% | residual activity [9] 85% | residual activity [10] 100% | residual activity [11] 94% | residual activity [12] 96% | residual activity [13] 100% | residual activity [14] 100% | residual activity [15] 93% | inhibition [16] -8.88% | inhibition [17] 1.98% | inhibition [18] 17.9% | inhibition [19] 18.6%

CN1CCN(c2cnc3c(C4CCN(C(=O)c5ccc(OC(F)(F)F)cc5N)CC4)ncnc3c2)CC1 [BAY-885]
inactive: residual activity [1] 100% | residual activity [2] 100% | residual activity [3] 100% | residual activity [4] 100% | residual activity [5] 100% | residual activity [6] 97% | residual activity [7] 100% | residual activity [8] 100% | residual activity [9] 95% | residual activity [10] 100% | residual activity [11] 100% | residual activity [12] 100% | residual activity [13] 90% | residual activity [14] 100% | residual activity [15] 100% | inhibition [16] 7.59% | inhibition [17] 12.7% | inhibition [18] 12.6% | inhibition [19] 27.1%
